In patent US20260258039A1, “AROMATIC COMPOUND, METHOD FOR PREPARING SAME, AND USE THEREOF IN PREPARATION OF ESTROGEN RECEPTOR DEGRADER” (Hinova Pharmaceuticals Inc., priority 2022, published 2026):
Where two headings read alike, the source gives them in different places.

Experiments:
Assay type in all cases: cell-based
ER [1] = molecular target: T1, ER (Homo sapiens, UniProt P03372); test: Degradation activities on ER (ELISA) in T47D breast cancer cells; conditions: for DC50: concentration required to degrade 50% of the target protein
T1 construct: T47D breast cancer cells were subcultured in cell culture medium; endogenous in cells; host or cells: T47D breast cancer cells
T1 sequence (P03372 1-595): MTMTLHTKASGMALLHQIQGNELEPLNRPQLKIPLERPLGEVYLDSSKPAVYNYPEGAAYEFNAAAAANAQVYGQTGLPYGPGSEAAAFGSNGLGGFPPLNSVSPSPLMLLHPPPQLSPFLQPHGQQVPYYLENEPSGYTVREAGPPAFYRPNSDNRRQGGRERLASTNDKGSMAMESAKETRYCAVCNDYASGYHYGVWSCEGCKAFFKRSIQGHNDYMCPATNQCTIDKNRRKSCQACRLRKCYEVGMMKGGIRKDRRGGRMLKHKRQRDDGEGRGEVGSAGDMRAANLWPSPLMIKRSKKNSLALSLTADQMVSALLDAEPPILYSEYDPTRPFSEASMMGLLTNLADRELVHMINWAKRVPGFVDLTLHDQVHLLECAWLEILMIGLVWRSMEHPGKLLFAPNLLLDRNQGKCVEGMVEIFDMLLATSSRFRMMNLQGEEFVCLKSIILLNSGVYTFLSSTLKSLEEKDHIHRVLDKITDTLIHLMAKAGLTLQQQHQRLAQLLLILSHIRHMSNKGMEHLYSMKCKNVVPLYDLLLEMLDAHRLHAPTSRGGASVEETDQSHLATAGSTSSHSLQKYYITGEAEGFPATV
Method in brief: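 Cellular ER degradation ELISA: compound dosed 24 h on T47D cells (2.5×10^4/well, pre-grown 3 days) at six final levels from 100 nM downward. Remaining ER was detected by HRP-TMB absorbance at 450 nm. Dose-response fitting gave DC50 and Dmax, the maximal percentage degraded.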

ER [2] = molecular target: T1, ER; test: Degradation activities on ER (Western blotting) in T47D breast cancer cells; conditions: 24 h, Western blot
Method: T47D breast cancer cells were subcultured in cell culture medium, and the cells in good growth condition were seeded into 6-well plate at 2 mL/well, with 2.5×10^5 cells per well. The cells were incubated overnight in a 37° C. incubator under 5% CO2. The drug was prepared into 10 mM stock solution with dimethyl sulfoxide (DMSO). Prior to use, the stock solution was diluted with DMSO in a ratio of 1:3. […] of the diluted compound was added to the cell culture wells (to ensure a DMSO concentration of 0.1% in the culture system), and each concentration was repeated twice. The plate were gently shaken to mix. Additionally, the negative control wells (containing equal amount of DMSO) and the positive control wells were set up. After 24 hours of culture, the cells were lysed with RIPA cell lysis buffer to extract proteins, and the protein concentration was measured using a BCA kit. The protein loading buffer (5×) was added, and the plate was heated at 100° C. for 5 min. Then, the sample was stored at −20° C. […] of protein collected from each well was loaded onto a polyacrylamide gel for electrophoresis. The protein is transferred from the polyacrylamide gel to a PVDF membrane, blocked with 5% skim milk at room temperature for 1 h, and incubated overnight at 4° C. with primary antibodies Anti-ERα rabbit mAb (CST, Cat #: 8644S) and Anti-GAPDH rabbit mAb (CST, Cat #: 2118L). The membrane was washed three times with TBST solution, with 10 min for each time. The secondary antibody (horseradish peroxidase-labeled goat anti-rabbit IgG) was incubated at room temperature for 2 h, and then the membrane was washed three times with TBST solution, with 10 min for each time. Finally, ECL chromogenic solution was added for color development, and an automatic chemiluminescence instrument was used to take pictures. Images were collected and analyzed.
The degradation activities of the compounds according to the present invention towards ER, as tested by western blotting, are presented in Table 2

[3] = system: MCF-7 breast cancer cells; test: Inhibition of proliferation of MCF-7 breast cancer cells (agarose culture, CellTiter-Glo 3D); conditions: Homo sapiens, MCF7, 360 h, MCF-7 cells, 15 days of cultivation; read-out: IC50
Method: After 1.6% agarose and 0.7% agarose were sterilized at high temperature, they were cooled to around 50° C., and placed in a 42° C. water bath for later use. MCF-7 breast cancer cells were subcultured in complete cell culture medium, and cells in good growth condition were digested and counted for future use. 50 µL of 1.6% agarose mixed with 2× culture medium at a ratio of 1:1 was spread into the bottom of 96-well plate, and allowed to cool and solidify. 0.7% agarose was mixed with diluted cell suspension in a ratio of 1:1, and then 50 µL of the mixture of gel and cells was added to each well, with 2000 cells for each well; the mixture was allowed to cool and solidify at room temperature. 50 μL of culture medium was added to the plate containing cells, and the plate was placed in a 37° C., 5% CO2 incubator and cultured for 24 h. The drug was prepared into 10 mM stock solution with dimethyl sulfoxide (DMSO). The stock solution was diluted in a ratio of 1:3, to obtain 9 concentration gradients. Then, each concentration of compound solution was further diluted with culture medium in 1:250 (to ensure a DMSO concentration of 0.1% in the culture system). Two replicate wells was set for each concentration. 50 μL of the diluted compound solution was added to the cell culture wells (with final concentrations of 10 μM, 3.3 μM, 1.1 μM, 0.37 μM . . . ). The plate was gently shaken for mixing. Additionally, 3 negative control wells only containing cells and 3 blank control wells only containing culture medium were set up (each of the 6 wells was added with 50 μL of DMSO diluted with culture medium in a ration of 1:250). After 15 days of cultivation, the cell plates and CellTiter-Glo 3D Cell Viability were taken out and equilibrated to room temperature in advance. 80 μL of culture medium were aspirated and discarded from the cell plate, and 120 µL of CellTiter-Glo 3D Cell Viability solution was added to each well. The plates were centrifuged at 1200 rpm/min for 5 min, and then placed in the dark and kept for 25 min. The […] were measured using a multi-function microplate reader. The data were analyzed using the Dose-response-inhibition equation in GraphPad Prism8 software, and the IC50 values were obtained, as shown in Table 3.

[4] = T47D cells, 24 h, ELISA, maximum percentage of target protein degraded, read-out: Dmax

| Structure (SMILES) | DC50 (ER [1]; T47D cells, 24 h, ELISA) [nM] | Dmax (ER [1]; [4]) [%] | Percentage reduction of ER (ER [2]; compound concentration 10 nM) [%] | Percentage reduction of ER (ER [2]; compound concentration 1 nM) [%] | IC50 [3] [nM] | Dmax (ER [1]; T47D) [%] | Percentage reduction of ER (ER [2]; compound concentration 100 nM) [%] |
| --- | --- | --- | --- | --- | --- | --- | --- |
| O=C1CCC(N2C(=O)c3ccc(N4CCC(CN5CCC6(CC5)CN(c5ccc([C@@H]7c8ccc(O)cc8CC[C@@H]7c7ccccc7)cc5)C6)CC4)cc3C2=O)C(=O)N1 (stereo partly drawn) [Example 1] | < 10 | 50 to 75 | 71 |  |  |  |  |
| O=C1CCC(N2Cc3cc(N4CCC5(CCN(CC6CCN(c7ccc([C@@H]8c9ccc(O)cc9CC[C@@H]8c8ccccc8)cc7)CC6)C5)C4)ccc3C2=O)C(=O)N1 (stereo partly drawn) [Example 2, 3-(5-(7-((1-(4-((1R,2S)-6-hydroxyl-2-phenyl-1,2,3,4-tetrahydronaphthalen-1-yl)phenyl)piperidin-4-yl)methyl)-2,7-diazaspiro[4.4]nonane-2-yl)-1-oxoisoinodolin-2-yl)piperidin-2,6-dione] | > 100 | < 50 |  | 53 |  |  |  |
| O=C1CCC(N2Cc3cc(N4CC5(CCN(CC6CCN(c7ccc([C@@H]8c9ccc(O)cc9CC[C@@H]8c8ccccc8)cc7)CC6)CC5)C4)ccc3C2=O)C(=O)N1 (stereo partly drawn) [Example 4] |  |  | 74 |  | 11 to 50 |  |  |
| O=C1CCC(N2Cc3cc(N4CCC5(CCN(CC6CCN(c7ccc([C@@H]8c9ccc(O)cc9OC[C@@H]8c8ccccc8)cc7)CC6)C5)C4)ccc3C2=O)C(=O)N1 (stereo partly drawn) [Example 8, 3-(5-(7-((1-(4-((3S,4R)-7-hydroxyl-3-phenyltryptophane-4-yl)phenyl)piperidin-4-yl)methyl)-2,7-diazaspiro[4.4]nonane-2-yl)-1-oxoisoinodolin-2-yl)piperidin-2,6-dione] |  |  |  | 47 | 11 to 50 |  |  |
| O=C1CCC(N2Cc3cc(N4CCC(N5CC6(CCN(c7ccc([C@@H]8c9ccc(O)cc9CC[C@@H]8c8ccccc8)cc7)CC6)C5)CC4)ccc3C2=O)C(=O)N1 (stereo partly drawn) [Example 12] | 10 to 50 |  | 84 |  |  | > 75 |  |
| O=C1CCC(N2C(=O)c3ccc(N4CC5CN(CC6CCN(c7ccc([C@@H]8c9ccc(O)cc9CC[C@@H]8c8ccccc8)cc7)CC6)CC5C4)cc3C2=O)C(=O)N1 (stereo partly drawn) [Example 25, 2-(2,6-dioxopiperidin-3-yl)-5-(5-((1-(4-((1R,2S)-6-hydroxyl-2-phenyl-1,2,3,4-tetrahydronaphthalen-1-yl)phenyl)piperidin-4-yl)methyl)hexahydropyrrolo[3,4-c]pyrrole-2(1H)-yl)isoinodolin-1,3-dione] | > 100 | < 50 | 47 |  |  |  |  |
| O=C1CCC(N2Cc3cc(N4CCC5(CC4)CN(CC4CCN(c6ccc([C@@H]7c8ccc(O)cc8CC[C@@H]7c7ccccc7)cc6)CC4)C5)ccc3C2=O)C(=O)N1 (stereo partly drawn) [Example 27, 3-(5-(2-((1-(4-((1R,2S)-6-hydroxyl-2-phenyl-1,2,3,4-tetrahydronaphthalen-1-yl)phenyl)piperidin-4-yl)methyl)-2,7-diazaspiro[3.5]nonan-7-yl)-1-oxoisoinodolin-2-yl)piperidin-2,6-dione] | > 100 |  |  | 78 |  | < 50 |  |
| O=C1CCC(N2Cc3cc(N4CC5(CCN(CC6CCN(c7ccc([C@H]8c9ccc(O)cc9OC[C@H]8c8ccccc8F)cc7)CC6)CC5)C4)ccc3C2=O)C(=O)N1 (stereo partly drawn) [Example 34, 3-(5-(7-((1-(4-((3R,4S)-3-(2-fluorophenyl)-7-hydroxychroman-4-yl)phenyl)piperidin-4-yl)methyl)-2,7-diazaspiro[3.5]nonane-2-yl)-1-oxoisoindol-2-yl)piperidin-2,6-dione] | > 100 | < 50 |  |  |  |  | 51 |
| O=C1CCC(N2C(=O)c3ccc(N4CCC5(CCN(CC6CCN(c7ccc([C@@H]8c9ccc(O)cc9CC[C@@H]8c8ccccc8)cc7)CC6)C5)C4)cc3C2=O)C(=O)N1 (stereo partly drawn) [Example 53, 2-(2,6-dioxopiperidin-3-yl)-5-(7-((1-(4-((1R,2S)-6-hydroxyl-2-phenyl-1,2,3,4-tetrahydronaphthalen-1-yl)phenyl)piperidin-4-yl)methyl)-2,7-diazaspiro[4.4]nonane-2-yl)isoinodolin-1,3-dione] | > 100 | < 50 |  | 39 |  |  |  |
| O=C1CCC(N2C(=O)c3ccc(N4CC5(CN(CC6CCN(c7ccc([C@@H]8c9ccc(O)cc9CC[C@@H]8c8ccccc8)cc7)CC6)C5)C4)cc3C2=O)C(=O)N1 (stereo partly drawn) [Example 54, 2-(2,6-dioxopiperidin-3-yl)-5-(6-((1-(4-((1R,2S)-6-hydroxyl-2-phenyl-1,2,3,4-tetrahydronaphthalen-1-yl)phenyl)piperidin-4-yl)methyl)-2,6-diazaspiro[3.3]heptan-2-yl)isoinodolin-1,3-dione] | > 100 | < 50 |  |  |  |  | 57 |
| O=C1CCC(N2C(=O)c3ccc(N4CC(N5CCN(c6ccc([C@@H]7c8ccc(O)cc8CC[C@@H]7c7ccccc7)cc6)CC5)C4)cc3C2=O)C(=O)N1 (stereo partly drawn) [Example 55, 2-(2,6-dioxopiperidin-3-yl)-5-(3-(4-(4-((1R,2S)-6-hydroxyl-2-phenyl-1,2,3,4-tetrahydronaphthalen-1-yl)phenyl)piperazine-1-yl)azetidin-1-yl)isoinodolin-1,3-dione] | > 100 | < 50 |  |  |  |  | 25 |
| O=C1CCC(N2C(=O)c3ccc(N4CC5(CCN(CC6CCN(c7ccc([C@H]8c9ccc(O)cc9OC[C@H]8c8ccccc8)cc7)CC6)CC5)C4)cc3C2=O)C(=O)N1 (stereo partly drawn) [Example 80, 2-(2,6-dioxopiperidin-3-yl)-5-(7-((1-(4-((3R,4S)-7-hydroxyl-3-phenylchroman-4-yl)phenyl)piperidin-4-yl)methyl)-2,7-diazaspiro[3.5]nonane-2-yl)isoinodolin-1,3-dione] |  |  |  | 50 |  |  |  |
| O=C1CCC(N2Cc3cc(N4CC5CN(CC6CCN(c7ccc([C@H]8c9ccc(O)cc9OC[C@H]8c8ccccc8)cc7)CC6)CC5C4)ccc3C2=O)C(=O)N1 (stereo partly drawn) [Example 82, 3-(5-(5-((1-(4-((3R,4S)-7-hydroxyl-3-phenylchroman-4-yl)phenyl)piperidin-4-yl)methyl)hexahydropyrrolo[3,4-c]pyrrole-2(1H)-yl)-1-oxoisoinodolin-2-yl)piperidin-2,6-dione] |  |  | 49 |  |  |  |  |
